Test results reported in US7786108B2, “Compounds and method for treating dyslipidemia” (Eli Lilly and Company, priority 2004, dated 2010).

System: transgenic mice that express both human CETP and human apolipoprotein A-1
Test: In vivo assay of plasma lipids: elevation of HDL cholesterol
Conditions: Mus musculus; single oral dose 30 mg/kg; HDL cholesterol in serum at 8 hr after administration; relative to a control; read-out: % HDL cholesterol increase
Source text: Additional serum lipids can be analyzed by enzymatic methods.

Row | Compound | change in vivo at 30 mg/kg [%]
1 | Cc1cc2c(c(C)c1C(F)(F)F)N(CC1CC1)CCC[C@@H]2N(Cc1cc(Cl)cc(C(F)(F)F)c1)c1nnn(C)n1 [Example 200, (S)-(3-Chloro-5-trifluoromethyl-benzyl)-(1-cyclopropylmethyl-7,9-dimethyl-8-trifluoromethyl-2,3,4,5-tetrahydro-1H-benzo[b]azepin-5-yl)-(2-methyl-2H-tetrazol-5-yl)-amine] | 153
2 | Cc1cc2c(cc1C(F)(F)F)N(C(=O)OC1CCCC1)CCC[C@@H]2N(Cc1cc(C(F)(F)F)cc(C(F)(F)F)c1)c1nnn(C)n1 [Example 20, (S)-5-[(3,5-Bis-trifluoromethyl-benzyl)-(2-methyl-2H-tetrazol-5-yl)-amino]-7-methyl-8-trifluoromethyl-2,3,4,5-tetrahydro-benzo[b]azepine-1-carboxylic acid cyclopentyl ester] | 72
3 | CC(C)OC(=O)N1CCCC(N(Cc2cc(C(F)(F)F)cc(C(F)(F)F)c2)c2nnn(C)n2)c2cc3c(cc21)CCC3 (racemic) [Example 50, (+/−)-9-[(3,5-Bis-trifluoromethyl-benzyl)-(2-methyl-2H-tetrazol-5-yl)-amino]-2,3,6,7,8,9-hexahydro-1H-5-aza-cyclohepta[f]indene-5-carboxylic acid isopropyl ester] | 127
4 | Cc1cc2c(cc1C(F)(F)F)N(C(=O)OC(C)(C)C)CCC[C@@H]2N(Cc1cc(C(F)(F)F)cc(C(F)(F)F)c1)c1nnn(C)n1 [Example 17, (S)-5-[(3,5-Bis-trifluoromethyl-benzyl)-(2-methyl-2H-tetrazol-5-yl)-amino]-7-methyl-8-trifluoromethyl-2,3,4,5-tetrahydro-benzo[b]azepine-1-carboxylic acid tert-butyl ester] | 73
5 | Cc1cc2c(cc1C(F)(F)F)N(CC1CCCC1)CCC[C@@H]2N(Cc1cc(C(F)(F)F)cc(C(F)(F)F)c1)c1nnn(C)n1 [Example 3, (S)-(3,5-bistrifluoromethylbenzyl)-(1-cyclopentylmethyl-7-methyl-8-trifluoromethyl-2,3,4,5-tetrahydro-1H-benzo[b]azepin-5-yl)-(2-methyl-2H-tetrazol-5-yl)amine] | 71
6 | Cc1c2c(cc3c1N(Cc1ccc(C(=O)O)cc1)CCC[C@@H]3N(Cc1cc(C(F)(F)F)cc(C(F)(F)F)c1)c1nnn(C)n1)COC2 [Example 166, (S)-4-{9-[(3,5-Bis-trifluoromethyl-benzyl)-(2-methyl-2H-tetrazol-5-yl)-amino]-4-methyl-1,3,6,7,8,9-hexahydro-2-oxa-5-aza-cyclohepta[f]inden-5-ylmethyl}-benzoic acid] | 102
7 | Cc1cc2c(cc1C(F)(F)F)N(C(=O)OC(C)(C)C)CCC[C@@H]2N(Cc1cc(Cl)cc(C(F)(F)F)c1)c1nnn(C)n1 [Example 185, (S)-5-[(3-Chloro-5-trifluoromethyl-benzyl)-(2-methyl-2H-tetrazol-5-yl)-amino]-7-methyl-8-trifluoromethyl-2,3,4,5-tetrahydro-benzo[b]azepine-1-carboxylic acid tert-butyl ester] | 155
8 | Cc1cc2c(c(C)c1C(F)(F)F)N(Cc1ccc(C(=O)O)cc1)CCC[C@@H]2N(Cc1cc(C(F)(F)F)cc(C(F)(F)F)c1)c1nnn(C)n1 [Example 202, (S)-4-{5-[(3,5-Bis-trifluoromethyl-benzyl)-(2-methyl-2H-tetrazol-5-yl)-amino]-7,9-dimethyl-8-trifluoromethyl-2,3,4,5-tetrahydro-benzo[b]azepin-1-ylmethyl}-benzoic acid] | 206
9 | Cc1cc2c(c(C)c1C(F)(F)F)N(CCC(C)(C)CC(=O)O)CCC[C@@H]2N(Cc1cc(C(F)(F)F)cc(C(F)(F)F)c1)c1nnn(C)n1 [Example 154, (S)-5-{5-[(3,5-Bis-trifluoromethyl-benzyl)-(2-methyl-2H-tetrazol-5-yl)-amino]-7,9-dimethyl-8-trifluoromethyl-2,3,4,5-tetrahydro-benzo[b]azepin-1-yl}-3,3-dimethyl-pentanoic acid] | 99
10 | Cc1cc2c(c(C)c1C(F)(F)F)N(C[C@H]1CC[C@H](CC(=O)O)CC1)CCC[C@@H]2N(Cc1cc(Cl)cc(C(F)(F)F)c1)c1nnn(C)n1 [Example 201, (S)-(4-{5-[(3-Chloro-5-trifluoromethyl-benzyl)-(2-methyl-2H-tetrazol-5-yl)-amino]-7,9-dimethyl-8-trifluoromethyl-2,3,4,5-tetrahydro-benzo[b]azepin-1-ylmethyl}-cyclohexyl)-acetic acid] | 147
11 | Cn1nnc(N(Cc2cc(C(F)(F)F)cc(C(F)(F)F)c2)[C@H]2CCCN(CC3CCCC3)c3cc4c(cc32)COC4)n1 [Example 73, (S)-(3,5-Bis-trifluoromethyl-benzyl)-(5-cyclopentylmethyl-3,5,6,7,8,9-hexahydro-1H-2-oxa-5-aza-cyclohepta[f]inden-9-yl)-(2-methyl-2H-tetrazol-5-yl)-amine] | 374
12 | CCC(CC)OC(=O)N1CCC[C@H](N(Cc2cc(C(F)(F)F)cc(C(F)(F)F)c2)c2nnn(C)n2)c2cc(C)c(C(F)(F)F)cc21 [Example 18, (S)-5-[(3,5-Bis-trifluoromethyl-benzyl)-(2-methyl-2H-tetrazol-5-yl)-amino]-7-methyl-8-trifluoromethyl-2,3,4,5-tetrahydro-benzo[b]azepine-1-carboxylic acid 1-ethyl-propyl ester] | 105
13 | Cc1cc2c(cc1C(F)(F)F)N(Cc1ccc(O)c(C(=O)O)c1)CCC[C@@H]2N(Cc1cc(C(F)(F)F)cc(C(F)(F)F)c1)c1nnn(C)n1 [Example 141, (S)-5-{5-[(3,5-Bis-trifluoromethyl-benzyl)-(2-methyl-2H-tetrazol-5-yl)-amino]-7-methyl-8-trifluoromethyl-2,3,4,5-tetrahydro-benzo[b]azepin-1-ylmethyl}-2-hydroxy-benzoic acid] | 74
14 | Cc1cc2c(cc1C(F)(F)F)N(Cc1nccs1)CCC[C@@H]2N(Cc1cc(C(F)(F)F)cc(C(F)(F)F)c1)c1nnn(CCN)n1 [Example 129, (S)-[2-(2-Amino-ethyl)-2H-tetrazol-5-yl]-(3,5-bis-trifluoromethyl-benzyl)-(7-methyl-1-thiazol-2-ylmethyl-8-trifluoromethyl-2,3,4,5-tetrahydro-1H-benzo[b]azepin-5-yl)-amine] | 92
15 | Cc1cc2c(cc1C(F)(F)F)N(C1CCOCC1)CCC[C@@H]2N(Cc1cc(C(F)(F)F)cc(C(F)(F)F)c1)c1nnn(C)n1 [Example 139, (S)-(3,5-Bis-trifluoromethyl-benzyl)-[7-methyl-1-(tetrahydro-pyran-4-yl)-8-trifluoromethyl-2,3,4,5-tetrahydro-1H-benzo[b]azepin-5-yl]-(2-methyl-2H-tetrazol-5-yl)-amine] | 130
16 | Cc1cc(N(Cc2cc(C(F)(F)F)cc(C(F)(F)F)c2)[C@H]2CCCN(C[C@H]3CC[C@H](CC(=O)O)CC3)c3cc(C(F)(F)F)c(C)cc32)on1 [Example 94, (4-{5-[(3,5-Bis-trifluoromethyl-benzyl)-(3-methyl-isoxazol-5-yl)-amino]-7-methyl-8-trifluoromethyl-2,3,4,5-tetrahydro-benzo[b]azepin-1-ylmethyl}-cyclohexyl)-acetic acid] | 154
17 | Cc1cc2c(cc1C(F)(F)F)N(CC1CC1)CCC[C@@H]2N(Cc1cc(Cl)cc(C(F)(F)F)c1)c1nnn(C)n1 [Example 196, (S)-(3-Chloro-5-trifluoromethyl-benzyl)-(1-cyclopropylmethyl-7-methyl-8-trifluoromethyl-2,3,4,5-tetrahydro-1H-benzo[b]azepin-5-yl)-(2-methyl-2H-tetrazol-5-yl)-amine] | 126
18 | CCC(OC(=O)N1CCCC(N(Cc2cc(C(F)(F)F)cc(C(F)(F)F)c2)c2nnn(C)n2)c2cc(C)c(C(F)(F)F)cc21)C(C)C (racemic) [Example 25, (+/−)-5-[(3,5-Bis-trifluoromethyl-benzyl)-(2-methyl-2H-tetrazol-5-yl)-amino]-7-methyl-8-trifluoromethyl-2,3,4,5-tetrahydro-benzo[b]azepine-1-carboxylic acid 1-ethyl-2-methyl-propyl ester] | 142
19 | Cc1cc2c(cc1C(F)(F)F)N(CC1CCC(CC(=O)O)CC1)CCCC2N(Cc1cc(C(F)(F)F)cc(C(F)(F)F)c1)c1nnn(C)n1 (stereo not shown) [Example 31, (4-{5-[(3,5-Bis-trifluoromethyl-benzyl)-(2-methyl-2H-tetrazol-5-yl)-amino]-7-methyl-8-trifluoromethyl-2,3,4,5-tetrahydro-benzo[b]azepin-1-ylmethyl}-cyclohexyl)-acetic acid] | 114

System: not given
Test: not given
Conditions: not given

Row | melting point | Compound
20 | 101 to 105 °C | Cc1cc2c(cc1C(F)(F)F)N(c1ccc(C(=O)O)cc1)CCC[C@@H]2N(Cc1cc(C(F)(F)F)cc(C(F)(F)F)c1)c1nnn(C)n1 [Example 92, (S)-4-{5-[(3,5-Bis-trifluoromethyl-benzyl)-(2-methyl-2H-tetrazol-5-yl)-amino]-7-methyl-8-trifluoromethyl-2,3,4,5-tetrahydro-benzo[b]azepin-1-yl}-benzoic acid]
21 | 62 to 65 °C (dec.) | COC(=O)c1cccc(CN2CCC[C@H](N(Cc3cc(C(F)(F)F)cc(C(F)(F)F)c3)c3nnn(C)n3)c3cc(C)c(C(F)(F)F)cc32)c1 [Example 90, (S)-3-{5-[(3,5-Bis-trifluoromethyl-benzyl)-(2-methyl-2H-tetrazol-5-yl)-amino]-7-methyl-8-trifluoromethyl-2,3,4,5-tetrahydro-benzo[b]azepin-1-ylmethyl}-benzoic acid methyl ester]
22 | 71 to 74 °C (dec.) | COC(=O)c1ccc(CN2CCC[C@H](N(Cc3cc(C(F)(F)F)cc(C(F)(F)F)c3)c3nnn(C)n3)c3cc(C)c(C(F)(F)F)cc32)cc1 [Example 88, (S)-4-{5-[(3,5-Bis-trifluoromethyl-benzyl)-(2-methyl-2H-tetrazol-5-yl)-amino]-7-methyl-8-trifluoromethyl-2,3,4,5-tetrahydro-benzo[b]azepin-1-ylmethyl}-benzoic acid methyl ester]
